ChEMBL document CHEMBL3994671, “Similarity- and Substructure-Based Development of β2-Adrenergic Receptor Ligands Based on Unusual Scaffolds” (ACS Med Chem Lett, 2017)
Calls of active or inactive are those of the source. No cut-off for these calls is given here.

Assays:
[1] = target: T1, Beta-1 adrenergic receptor (Homo sapiens, UniProt P08588); experiment: Displacement of [3H](-)CGP12177 from human beta1-AR expressed in CHOK1 cells at 20 to 100 uM after 2 hrs by TopCount microscintillation counting method relative to control; assay type: cell-based
Target sequence in this assay (P08588 whole entry, looked up): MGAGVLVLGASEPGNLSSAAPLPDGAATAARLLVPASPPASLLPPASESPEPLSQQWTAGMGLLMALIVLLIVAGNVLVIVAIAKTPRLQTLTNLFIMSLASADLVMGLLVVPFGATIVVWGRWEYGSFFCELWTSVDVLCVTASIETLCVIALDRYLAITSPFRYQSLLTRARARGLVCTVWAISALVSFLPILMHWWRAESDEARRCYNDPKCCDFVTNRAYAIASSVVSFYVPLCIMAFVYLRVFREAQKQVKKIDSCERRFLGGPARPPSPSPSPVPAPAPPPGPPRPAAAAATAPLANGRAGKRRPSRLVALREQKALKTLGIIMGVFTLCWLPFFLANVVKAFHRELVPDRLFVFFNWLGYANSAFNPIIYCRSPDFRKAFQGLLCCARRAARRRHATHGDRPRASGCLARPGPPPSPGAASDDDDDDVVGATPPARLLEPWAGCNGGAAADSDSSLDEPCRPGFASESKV

[2] = target: T2, Beta-2 adrenergic receptor (Homo sapiens, UniProt P07550); experiment: Displacement of [3H](-)CGP12177 from human beta2-AR expressed in CHOK1 cells after 2 hrs by TopCount microscintillation counting method; assay type: cell-based
[3] = species: Homo sapiens; experiment: Selectivity ratio of Kd for human beta1-AR expressed in CHOK1 cells to Kd for human beta2-AR expressed in CHOK1 cells; assay type: cell-based
[4] = target: T2, Beta-2 adrenergic receptor; experiment: Displacement of [3H]DHA from beta2-AR (unknown origin) expressed in baculovirus infected sf9 cell membranes after 1 hr by scintillation counting method
Target sequence in this assay (P07550 whole entry): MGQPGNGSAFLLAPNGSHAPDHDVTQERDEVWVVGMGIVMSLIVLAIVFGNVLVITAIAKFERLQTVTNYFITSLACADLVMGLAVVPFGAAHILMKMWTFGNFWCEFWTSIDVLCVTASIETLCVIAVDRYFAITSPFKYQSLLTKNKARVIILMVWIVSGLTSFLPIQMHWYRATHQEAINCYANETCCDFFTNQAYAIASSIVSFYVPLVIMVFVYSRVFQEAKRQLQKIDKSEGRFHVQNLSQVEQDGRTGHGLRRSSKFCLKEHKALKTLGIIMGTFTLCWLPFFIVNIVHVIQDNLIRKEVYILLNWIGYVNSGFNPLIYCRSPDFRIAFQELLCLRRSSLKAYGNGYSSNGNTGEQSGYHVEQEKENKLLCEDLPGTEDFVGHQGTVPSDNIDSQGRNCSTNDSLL

[5] = target: T1, Beta-1 adrenergic receptor; experiment: Displacement of [3H](-)CGP12177 from human beta1-AR expressed in CHOK1 cells after 2 hrs by TopCount microscintillation counting method; assay type: cell-based
Target sequence in this assay (P08588 whole entry): as the sequence (P08588 whole entry, looked up) above

[6] = target: T1, Beta-1 adrenergic receptor; experiment: Antagonist activity at human beta1-AR expressed in CHOK1 cells assessed as inhibition of cimaterol-induced CRE-SPAP production at 100 uM after 5 hrs; assay type: functional, cell-based
Target sequence in this assay (P08588 whole entry, looked up): as above

[7] = target: T2, Beta-2 adrenergic receptor; experiment: Antagonist activity at human beta2-AR expressed in CHOK1 cells assessed as inhibition of cimaterol-induced CRE-SPAP production at 100 uM after 5 hrs; assay type: functional, cell-based
Target sequence in this assay (P07550 whole entry, looked up): as the sequence (P07550 whole entry) above

[8] = target: T2, Beta-2 adrenergic receptor; experiment: Neutral antagonist activity at human beta2-AR expressed in CHOK1 cells assessed as inhibition of cimaterol-induced CRE-SPAP production at 100 uM after 5 hrs; assay type: functional, cell-based
Target sequence in this assay (P07550 whole entry, looked up): as the sequence (P07550 whole entry) above

[9] = target: T1, Beta-1 adrenergic receptor; experiment: Neutral antagonist activity at human beta1-AR expressed in CHOK1 cells assessed as inhibition of cimaterol-induced CRE-SPAP production at 100 uM after 5 hrs; assay type: functional, cell-based
Target sequence in this assay (P08588 whole entry, looked up): as the sequence (P08588 whole entry, looked up) above

[10] = target: T1, Beta-1 adrenergic receptor; experiment: Antagonist activity at human beta1-AR expressed in CHOK1 cells assessed as inhibition of cimaterol-induced CRE-SPAP production at 2 uM after 5 hrs; assay type: functional, cell-based
Target sequence in this assay (P08588 whole entry, looked up): as above

[11] = target: T1, Beta-1 adrenergic receptor; experiment: Antagonist activity at human beta1-AR expressed in CHOK1 cells assessed as inhibition of cimaterol-induced CRE-SPAP production at 20 uM after 5 hrs; assay type: functional, cell-based
Target sequence in this assay (P08588 whole entry, looked up): as above

[12] = target: T2, Beta-2 adrenergic receptor; experiment: Antagonist activity at human beta2-AR expressed in CHOK1 cells assessed as inhibition of cimaterol-induced CRE-SPAP production at 20 uM after 5 hrs; assay type: functional, cell-based
Target sequence in this assay (P07550 whole entry, looked up): as the sequence (P07550 whole entry) above

[13] = target: T2, Beta-2 adrenergic receptor; experiment: Antagonist activity at human beta2-AR expressed in CHOK1 cells assessed as inhibition of cimaterol-induced CRE-SPAP production at 2 uM after 5 hrs; assay type: functional, cell-based
Target sequence in this assay (P07550 whole entry, looked up): as the sequence (P07550 whole entry) above

[14] = target: T2, Beta-2 adrenergic receptor; experiment: Partial agonist activity at human beta2-AR expressed in CHOK1 cells assessed as inhibition of cimaterol-induced CRE-SPAP production after 5 hrs; assay type: functional, cell-based
Target sequence in this assay (P07550 whole entry): as above

[15] = target: T1, Beta-1 adrenergic receptor; experiment: Partial agonist activity at human beta1-AR expressed in CHOK1 cells assessed as CRE-SPAP production after 5 hrs in presence of beta1-AR antagonist CGP20712A; assay type: functional, cell-based
Target sequence in this assay (P08588 whole entry, looked up): as the sequence (P08588 whole entry, looked up) above

[16] = target: T1, Beta-1 adrenergic receptor; experiment: Partial agonist activity at human beta1-AR expressed in CHOK1 cells assessed as CRE-SPAP production after 5 hrs; assay type: functional, cell-based
[17] = target: T1, Beta-1 adrenergic receptor; experiment: Partial agonist activity at human beta1-AR expressed in CHOK1 cells assessed as inhibition of cimaterol-induced CRE-SPAP production after 5 hrs; assay type: functional, cell-based

| Compound | Kd ([2]; read-out: pKd (converted)) [µM] | Kd [5] [µM] | Selectivity ratio [3] | other results |
| --- | --- | --- | --- | --- |
| CCCCN(C)Cc1c(O)cc(C)c2c1O/C(=C\c1cc3cc(Br)ccc3o1)C2=O | – | – | – | inhibition [1]: < 50% |
| Cc1cc(O)c(CN(C)C)c2c1C(=O)/C(=C/c1ccccc1)O2 | – | – | 1.9 | – |
| CCNCCOc1ccccc1-c1ccccc1 | – | – | – | Ki [4]: 9 to 3200 nM |
| CC(O)CNCCOc1ccccc1-c1ccccc1 (centres undefined) | – | – | – | Ki [4]: 9 to 3200 nM |
| COCCNCCOc1ccccc1-c1ccccc1 | – | – | – | Ki [4]: 9 to 3200 nM |
| C[n+]1c(C2=C(N)N(c3ccccc3)CC2=O)sc2ccccc21 | – | – | – | inhibition [2]: inactive |
| CCN1C(=Cc2sc3ccccc3[n+]2C)C=Cc2cccc(C)c21 | – | – | – | Ki [4]: 9 to 3200 nM |
| COc1ccc(C(=O)C[n+]2c(C)n(C(F)F)c3ccccc32)cc1 | – | – | – | inhibition [2]: Active; inhibition [6]: inactive; inhibition [7]: inactive |
| COc1cccc(/C=C2\Oc3c(CN4CCCC4)c(O)cc(C)c3C2=O)c1 | 5.5 | 35.5 | 6.5 | inhibition [6]: Active; inhibition [7]: Active |
| Cc1n(-c2ccccc2)c2ccc(Cl)cc2[n+]1CCO | – | – | – | inhibition [2]: Active; inhibition [6]: inactive; inhibition [7]: inactive |
| CCOC(=O)C1Oc2cccc(OCC(O)CNC(C)C)c2C1C (centres undefined) | – | – | – | Ki [4]: 9 to 3200 nM |
| Cc1cc(O)c(CN2CCCC2)c2c1C(=O)/C(=C\c1ccco1)O2 | – | – | – | Ki [4]: 9 to 3200 nM |
| CC(C)(C)NCC(O)COc1ccccc1-c1ccccc1 (centres undefined) [BERLAFENONE] | – | – | – | Kd ([2]; read-out: Kd): 3.5e-05 µM |
| CC(C)(C)NC[C@@H](O)COc1ccccc1-c1ccccc1 | 3.55e-05 | 0.000977 | 27.5 | Kd [14]: 0.0182 nM; Activity [15]: inactive; Activity [16]: Active; inhibition [17]: Active |
| COc1cccc(/C=C2\Oc3c(CN(C)C)c(O)cc(C)c3C2=O)c1 | 21.9 | 44.7 | 2 | – |
| Cc1cc(O)c(CN2CCCC2)c2c1C(=O)/C(=C/c1cc3ccccc3o1)O2 | – | – | 2.6 | – |

More lines, main results first:

| Kd ([2]; read-out: pKd (converted)) [µM] | Kd [5] [µM] | Compound | Selectivity ratio [3] | other results |
| --- | --- | --- | --- | --- |
| 23.4 | – | CN(C)CCOc1ccc2ccccc2c1C=O | 4.2 | – |
| 17.4 | 26.3 | COc1cccc(/C=C2\Oc3c(CN4CCN(C)CC4)c(O)cc(C)c3C2=O)c1 | 1.5 | – |
| 2.63 | 27.5 | C=CCNCCOc1ccccc1-c1ccccc1 | 10.5 | inhibition [6]: Active; inhibition [7]: Active |
| 3.8 | 45.7 | CN(C)CCOCCOc1ccccc1-c1ccccc1 | 12 | inhibition [8]: Active; inhibition [9]: Active |
| 38.9 | – | C[n+]1c(/C=C/Nc2ccccc2)sc2ccccc21 | 6.6 | – |
| 0.891 | 3.09 | CCOC(=O)c1cc(/C=C/c2sc3ccccc3[n+]2C)c2sc3ccccc3n12 | 3.5 | inhibition [10]: inactive; inhibition [11]: Active; inhibition [12]: Active; inhibition [13]: Active |
| 4.9 | 13.8 | C[n+]1c(/C=C/c2ccccc2Cl)sc2ccccc21 | 2.8 | – |
